# Source: publication PMC10569260 (Nature methods, 2023)
# Experiments:
# [1] = tested on: locomotion; assay: Open field locomotion with infusion / in vivo uncaging in the VTA; parameters: species or system mouse; settings: naloxone 3 mg/kg intraperitoneal before CNV-Y-DAMGO infusion and light
# [2] = tested on: inhibitory synaptic transmission onto CA1 pyramidal neurons (native opioid receptors); format: cell-based, mouse; settings: CTAP 1 μM, with CNV-Y-DAMGO uncaging
Compound,effect on locomotor response to DAMGO photorelease [1],effect on optically-evoked suppression of synaptic transmission [2]
C=CCN1CC[C@]23c4c5ccc(O)c4O[C@H]2C(=O)CC[C@@]3(O)[C@H]1C5 [naloxone],strongly attenuated,–
CTAP,–,completely blocked
